Data reported in the NIST ThermoML archive (doi:10.1016/j.jct.2015.03.021).

Columns and labels:
[1] = 101.33 kPa, Liquid, Vibrating tube method
[2] = relative permittivity at various frequencies (dimensionless); details: 100 kPa, Liquid, Frequency=1 MHz, Parallel plate capacitor
[3] = excess molar enthalpy (molar enthalpy of mixing); xn = mol fraction of the nth substance listed; details: 100 kPa, Liquid, Calvet calorimetry

CC(C)CCO [3-methylbutan-1-ol]
Details	mass density, [1] [kg/m3]	relative permittivity, [2]
298.15 K	804.24	15.09
308.15 K	796.95	13.73

CC(C)CCO [3-methylbutan-1-ol] + CCCCOCCCC
[3]
Details	excess molar enthalpy [kcal/mol]
298.15 K, x2 = 0.092	0.0552
298.15 K, x2 = 0.1608	0.0932
298.15 K, x2 = 0.2389	0.132
298.15 K, x2 = 0.3161	0.16
298.15 K, x2 = 0.3993	0.187
298.15 K, x2 = 0.4694	0.204
298.15 K, x2 = 0.5458	0.216
298.15 K, x2 = 0.6389	0.221
298.15 K, x2 = 0.7088	0.211
298.15 K, x2 = 0.776	0.194
298.15 K, x2 = 0.8626	0.154
298.15 K, x2 = 0.9423	0.0837
308.15 K, x2 = 0.0836	0.054
308.15 K, x2 = 0.1547	0.0951
308.15 K, x2 = 0.2348	0.138
308.15 K, x2 = 0.3248	0.176
308.15 K, x2 = 0.4249	0.202
308.15 K, x2 = 0.4894	0.22
308.15 K, x2 = 0.5775	0.228
308.15 K, x2 = 0.6519	0.226
308.15 K, x2 = 0.7302	0.214
308.15 K, x2 = 0.787	0.194
308.15 K, x2 = 0.8553	0.161
308.15 K, x2 = 0.9681	0.0564

CCC(O)CC [3-pentanol]
Details	mass density, [1] [kg/m3]	relative permittivity, [2]
298.15 K	815.62	13.21
308.15 K	806.9	11.39

CCC(O)CC [3-pentanol] + CCCCOCCCC
[3]
Details	excess molar enthalpy [kcal/mol]
298.15 K, x2 = 0.0979	0.0951
298.15 K, x2 = 0.1702	0.159
298.15 K, x2 = 0.2558	0.219
298.15 K, x2 = 0.3242	0.257
298.15 K, x2 = 0.4033	0.283
298.15 K, x2 = 0.4684	0.302
298.15 K, x2 = 0.5438	0.314
298.15 K, x2 = 0.6374	0.311
298.15 K, x2 = 0.7023	0.3
298.15 K, x2 = 0.7739	0.269
298.15 K, x2 = 0.8554	0.214
298.15 K, x2 = 0.9278	0.129
308.15 K, x2 = 0.0991	0.0968
308.15 K, x2 = 0.1692	0.157
308.15 K, x2 = 0.235	0.202
308.15 K, x2 = 0.3202	0.25
308.15 K, x2 = 0.3985	0.276
308.15 K, x2 = 0.5414	0.306
308.15 K, x2 = 0.6464	0.306
308.15 K, x2 = 0.7326	0.29
308.15 K, x2 = 0.811	0.246
308.15 K, x2 = 0.8986	0.182
308.15 K, x2 = 0.9603	0.0817

CCCCCO [pentan-1-ol]
Details	mass density, [1] [kg/m3]	relative permittivity, [2]
298.15 K	810.89	15
308.15 K	803.7	13.51

CCCC(C)O (configuration not stated) [pentan-2-ol]
Details	mass density, [1] [kg/m3]	relative permittivity, [2]
298.15 K	806.11	13.54
308.15 K	798	12.08

CCCC(C)O (configuration not stated) [pentan-2-ol] + CCCCOCCCC
[3]
Details	excess molar enthalpy [kcal/mol]
298.15 K, x2 = 0.0974	0.0839
298.15 K, x2 = 0.1685	0.136
298.15 K, x2 = 0.2474	0.185
298.15 K, x2 = 0.3335	0.225
298.15 K, x2 = 0.397	0.243
298.15 K, x2 = 0.5096	0.268
298.15 K, x2 = 0.549	0.27
298.15 K, x2 = 0.6386	0.268
298.15 K, x2 = 0.705	0.255
298.15 K, x2 = 0.7803	0.232
298.15 K, x2 = 0.8623	0.193
298.15 K, x2 = 0.9322	0.118
308.15 K, x2 = 0.0841	0.0758
308.15 K, x2 = 0.1634	0.138
308.15 K, x2 = 0.2305	0.182
308.15 K, x2 = 0.3156	0.225
308.15 K, x2 = 0.4161	0.264
308.15 K, x2 = 0.4834	0.284
308.15 K, x2 = 0.5759	0.288
308.15 K, x2 = 0.6314	0.286
308.15 K, x2 = 0.7299	0.265
308.15 K, x2 = 0.8144	0.234
308.15 K, x2 = 0.908	0.161
308.15 K, x2 = 0.964	0.0746
